Measured values reported in US20170150719A1, “FUNGICIDAL PYRAZOLES AND THEIR MIXTURES” (E I DU PONT DE NEMOURS AND COMPANY, priority 2010, published 2017).

Legend:
[1] = test system: Septoria nodorum; assay: Test E: Septoria glume blotch, preventive spray on wheat seedlings, visual disease rating; conditions: 100 = 100% disease control; for Test E rating (disease control): Septoria glume blotch; for Test E rating (disease control) / pest or weed control at 200 µg/mL: 0 = no disease control relative to the controls; for pest or weed control at 200 µg/mL: Parastagonospora nodorum, in Triticum aestivum, read-out: Test E rating (disease control), Septoria glume blotch; for Test E rating (% disease control): Septoria glume blotch on wheat, preventive spray, rating without asterisk
Method: General protocol for preparing test suspensions for Tests A-I: the test compounds were first dissolved in acetone in an amount equal to 3% of the final volume and then suspended at the desired concentration (in ppm) in acetone and purified water (50/50 mix by volume) containing 250 ppm of the surfactant Trem® 014 (polyhydric alcohol esters). The resulting test suspensions were then used in Tests A-I. Each test was conducted in triplicate, and the results were averaged. Spraying a 200 ppm test suspension to the point of run-off on the test plants was the equivalent of a rate of about 800 g/ha. Unless otherwise indicated, the rating values indicate a 200 ppm test suspension was used. (An asterisk “*” next to the rating value indicates a 40 ppm test suspension was used.)
The test suspension was sprayed to the point of run-off on wheat seedlings. The following day the seedlings were inoculated with a spore suspension of Septoria nodorum (the causal agent of Septoria glume blotch) and incubated in a saturated atmosphere at 24° C. for 48 h, and then moved to a growth chamber at 20° C. for 9 days, after which time visual disease ratings were made.

[2] = test system: Blumeria graminis f. sp. tritici; assay: Test I: wheat powdery mildew, preventive spray on wheat seedlings, visual disease rating; conditions: 100 = 100% disease control; for Test I rating (disease control) / Test I rating (% disease control): wheat powdery mildew; for Test I rating (disease control) / pest or weed control at 200 µg/mL: 0 = no disease control relative to the controls; for pest or weed control at 200 µg/mL: Blumeria graminis, in Triticum aestivum, read-out: Test I rating (disease control), wheat powdery mildew; for Test I rating (% disease control): preventive spray, rating without asterisk
[3] = test system: Puccinia recondita f. sp. tritici; assay: Test H: wheat leaf rust, preventive spray on wheat seedlings, visual disease rating; conditions: 100 = 100% disease control; for Test H rating (disease control) / Test H rating (% disease control): wheat leaf rust; for Test H rating (disease control): sprayed the day before inoculation; for Test H rating (disease control) / pest or weed control at 200 µg/mL: 0 = no disease control; for pest or weed control at 200 µg/mL: read-out: Test H rating (disease control), wheat leaf rust, sprayed the day before inoculation; for Test H rating (% disease control): preventive spray, rating without asterisk
[4] = test system: Septoria tritici; assay: Test F: wheat leaf blotch, preventive spray on wheat seedlings, visual disease rating; format: in vivo; conditions: 100 = 100% disease control; for Test F rating (disease control) / pest or weed control at 200 µg/mL: 0 = no disease control relative to the controls; for pest or weed control at 200 µg/mL: Zymoseptoria tritici; for Test F rating (% disease control): preventive spray, rating without asterisk
Source text: (§1) A hyphen (-) indicates no test results.

[5] = test system: Alternaria solani; assay: Test B: tomato early blight, preventive spray on tomato seedlings, visual disease rating; conditions: for Test B rating (disease control) / Test B rating (% disease control): tomato early blight, 100 = 100% disease control; for Test B rating (disease control): 0 = no disease control relative to the controls; for pest or weed control at 200 µg/mL: Alternaria solani, in Solanum lycopersicum, read-out: Test B rating (disease control); for Test B rating (% disease control): preventive spray, rating without asterisk
[6] = test system: Botrytis cinerea; assay: Test A: tomato Botrytis, preventive spray on tomato seedlings, visual disease rating; conditions: 100 = 100% disease control; for Test A rating (disease control) / Test A rating (% disease control): tomato Botrytis; for Test A rating (disease control) / pest or weed control at 200 µg/mL: 0 = no disease control relative to the controls; for pest or weed control at 200 µg/mL: Botrytis cinerea, in Solanum lycopersicum, read-out: Test A rating (disease control), tomato Botrytis; for Test A rating (% disease control): preventive spray, 0 = no control relative to controls, rating without asterisk
[7] = test system: Puccinia recondita f. sp. tritici; assay: Test G: wheat leaf rust, spray after inoculation (curative) on wheat seedlings, visual disease rating; format: in vivo; conditions: 100 = 100% disease control; for Test G rating (disease control) / pest or weed control at 200 µg/mL: sprayed after inoculation, 0 = no disease control; for Test G rating (% disease control): spray after inoculation, rating without asterisk
Source text: as §1

Cc1nn(C)c(Oc2ccc(C#N)cc2Cl)c1-c1ccc(Cl)cc1Cl [compound 131]
Test E rating (disease control) [1]: 0%
Test I rating (disease control) [2]: 96%
Test H rating (disease control) [3]: 96%
Test F rating (disease control) [4]: 100%
Test B rating (disease control) [5]: 0%
Test A rating (disease control) [6]: 100%
Test G rating (disease control) [7]: 0%

COc1ccc(-c2c(C)nn(C)c2Oc2c(F)cc(C#N)cc2F)c(F)c1 [compound 14]
Test E rating (disease control) [1]: 99%
Test I rating (disease control) [2]: 99%
Test H rating (disease control) [3]: 100%
Test F rating (disease control) [4]: 100%
Test B rating (disease control) [5]: 100%
Test A rating (disease control) [6]: 99%
Test G rating (disease control) [7]: 37%

Cc1nn(C)c(Nc2ccc(F)cc2F)c1-c1ccc(Cl)cc1Cl [Compound 17, 4-(2,4-dichlorophenyl)-N-(2,4-difluorophenyl)-1,3-dimethyl-1H-pyrazol-5-amine]
pest or weed control at 200 µg/mL [1]: 60%
pest or weed control at 200 µg/mL [2]: 100%
pest or weed control at 200 µg/mL [3]: 99%
pest or weed control at 200 µg/mL [4]: 99%
pest or weed control at 200 µg/mL [5]: 73%
pest or weed control at 200 µg/mL [6]: 100%
pest or weed control at 200 µg/mL [7]: 91%

Cc1nn(C)c(Oc2c(F)cc(C#N)cc2F)c1-c1ccc(F)cc1Br [Compound 65, 4-[[4-(2-bromo-4-fluorophenyl)-1,3-dimethyl-1H-pyrazol-5-yl]oxy]-3,5-difluorobenzonitrile]
pest or weed control at 200 µg/mL [1]: 99%
pest or weed control at 200 µg/mL [2]: 100%
pest or weed control at 200 µg/mL [3]: 100%
pest or weed control at 200 µg/mL [4]: 100%
pest or weed control at 200 µg/mL [5]: 99%
pest or weed control at 200 µg/mL [6]: 100%
pest or weed control at 200 µg/mL [7]: 0%

CCOc1ccc(-c2c(C)nn(C)c2Nc2c(F)cc(F)cc2Cl)c(Cl)c1 [compound 206]
Test E rating (% disease control) [1]: 99%
Test I rating (% disease control) [2]: 100%
Test H rating (% disease control) [3]: 99%
Test F rating (% disease control) [4]: 100%
Test B rating (% disease control) [5]: 100%
Test A rating (% disease control) [6]: 99%
Test G rating (% disease control) [7]: 0%

Cc1nn(C)c(Nc2c(F)cc(Br)cc2F)c1-c1ccc(F)cc1F [Compound 133, N-(4-bromo-2,6-difluorophenyl)-4-(2,4-difluorophenyl)-1,3-dimethyl-1H-pyrazol-5-amine]
pest or weed control at 200 µg/mL [1]: 88%
pest or weed control at 200 µg/mL [2]: 100%
pest or weed control at 200 µg/mL [3]: 99%
pest or weed control at 200 µg/mL [4]: 100%
pest or weed control at 200 µg/mL [5]: 97%
pest or weed control at 200 µg/mL [6]: 99%
pest or weed control at 200 µg/mL [7]: 0%

COc1ccc(Nc2c(-c3ccc(F)cc3Cl)c(C)nn2C)c(Cl)c1 [compound 101]
Test E rating (disease control) [1]: 0%
Test I rating (disease control) [2]: 100%
Test H rating (disease control) [3]: 100%
Test F rating (disease control) [4]: 100%
Test B rating (disease control) [5]: 93%
Test A rating (disease control) [6]: 100%
Test G rating (disease control) [7]: 99%

Cc1nn(C)c(Nc2c(F)cc(F)cc2F)c1-c1c(F)cc(C#N)cc1F [compound 35]
Test E rating (disease control) [1]: 60%
Test I rating (disease control) [2]: 94%
Test H rating (disease control) [3]: 100%
Test F rating (disease control) [4]: 99%
Test B rating (disease control) [5]: 100%
Test A rating (disease control) [6]: 100%
Test G rating (disease control) [7]: 0%

COc1cc(F)c(Nc2c(-c3ccc(Cl)cc3Cl)c(C)nn2C)c(F)c1 [compound 16]
Test E rating (disease control) [1]: 84%
Test I rating (disease control) [2]: 99%
Test H rating (disease control) [3]: 99%
Test F rating (disease control) [4]: 98%
Test B rating (disease control) [5]: 98%
Test A rating (disease control) [6]: 99%
Test G rating (disease control) [7]: 98%

COc1cc(F)c(Nc2c(-c3c(F)cc(C#N)cc3F)c(C)nn2C)c(F)c1 [compound 36]
Test E rating (disease control) [1]: 0%
Test I rating (disease control) [2]: 0%
Test H rating (disease control) [3]: 41%
Test F rating (disease control) [4]: 99%
Test B rating (disease control) [5]: 0%
Test A rating (disease control) [6]: 99%
Test G rating (disease control) [7]: 0%

Cc1nn(C)c(Oc2c(F)cc(C#N)cc2F)c1-c1ccc(F)cc1Cl [Compound 13, 4-[[4-(2-chloro-4-fluorophenyl)-1,3-dimethyl-1H-pyrazol-5-yl]oxy]-3,5-difluorobenzonitrile]
pest or weed control at 200 µg/mL [1]: 100%
pest or weed control at 200 µg/mL [2]: 100%
pest or weed control at 200 µg/mL [3]: 100%
pest or weed control at 200 µg/mL [4]: 100%
pest or weed control at 200 µg/mL [5]: 100%
pest or weed control at 200 µg/mL [6]: 100%
pest or weed control at 200 µg/mL [7]: 7%

Cc1nn(C)c(Nc2ccc(Br)cc2Cl)c1-c1ccc(F)cc1Cl [compound 172]
Test E rating (disease control) [1]: 60%
Test I rating (disease control) [2]: 100%
Test H rating (disease control) [3]: 100%
Test F rating (disease control) [4]: 100%
Test B rating (disease control) [5]: 73%
Test A rating (disease control) [6]: 100%
Test G rating (disease control) [7]: 0%

Cc1nn(C)c(Nc2c(F)cc(F)cc2Br)c1-c1ccc(F)cc1I [compound 226]
Test E rating (% disease control) [1]: 60%
Test I rating (% disease control) [2]: 100%
Test H rating (% disease control) [3]: 99%
Test F rating (% disease control) [4]: 100%
Test B rating (% disease control) [5]: 97%
Test A rating (% disease control) [6]: 97%
Test G rating (% disease control) [7]: 0%

Cc1nn(C)c(Nc2c(F)cccc2F)c1-c1ccc(F)cc1F [compound 71]
Test E rating (disease control) [1]: 96%
Test I rating (disease control) [2]: 100%
Test H rating (disease control) [3]: 99%
Test F rating (disease control) [4]: 100%
Test B rating (disease control) [5]: 99%
Test A rating (disease control) [6]: 99%
Test G rating (disease control) [7]: 0%

Cc1nn(C)c(Nc2c(F)cc(Br)cc2Br)c1-c1ccc(F)cc1I [compound 223]
Test E rating (% disease control) [1]: 0%
Test I rating (% disease control) [2]: 99%
Test H rating (% disease control) [3]: 97%
Test F rating (% disease control) [4]: 100%
Test B rating (% disease control) [5]: 88%
Test A rating (% disease control) [6]: 98%
Test G rating (% disease control) [7]: 0%

Cc1nn(C)c(Nc2c(F)cc(C#N)cc2F)c1-c1c(F)cc(F)cc1F [compound 26]
Test E rating (disease control) [1]: 99%
Test I rating (disease control) [2]: 100%
Test H rating (disease control) [3]: 99%
Test F rating (disease control) [4]: 100%
Test B rating (disease control) [5]: 100%
Test A rating (disease control) [6]: 100%
Test G rating (disease control) [7]: 41%

Cc1nn(C)c(Nc2c(F)cc(F)cc2F)c1-c1ccccc1Br [compound 70]
Test E rating (disease control) [1]: 73%
Test I rating (disease control) [2]: 100%
Test H rating (disease control) [3]: 99%
Test F rating (disease control) [4]: 100%
Test B rating (disease control) [5]: 26%
Test A rating (disease control) [6]: 99%
Test G rating (disease control) [7]: 0%

COc1cc(F)c(-c2c(C)nn(C)c2Oc2c(F)cc(Cl)cc2F)c(F)c1 [Compound 15]
Test E rating (disease control) [1]: 89%
Test I rating (disease control) [2]: 100%
Test H rating (disease control) [3]: 100%
Test F rating (disease control) [4]: 98%
Test B rating (disease control) [5]: 100%
Test A rating (disease control) [6]: 98%
Test G rating (disease control) [7]: 82%

Cc1nn(C)c(Nc2ccc(Cl)cc2Cl)c1-c1c(Cl)cccc1Cl [compound 105]
Test E rating (disease control) [1]: 0%
Test I rating (disease control) [2]: 99%
Test H rating (disease control) [3]: 96%
Test F rating (disease control) [4]: 100%
Test B rating (disease control) [5]: 0%
Test A rating (disease control) [6]: 99%
Test G rating (disease control) [7]: 0%

Cc1nn(C)c(Nc2c(F)cc(Cl)cc2I)c1-c1ccc(F)cc1Cl [compound 182]
Test E rating (% disease control) [1]: 100%
Test I rating (% disease control) [2]: 100%
Test H rating (% disease control) [3]: 100%
Test F rating (% disease control) [4]: 100%
Test B rating (% disease control) [5]: 100%
Test A rating (% disease control) [6]: 100%
Test G rating (% disease control) [7]: 100%

COc1ccc(-c2c(C)nn(C)c2Oc2ccc(C#N)cc2Cl)c(Br)c1 [compound 99]
Test E rating (disease control) [1]: 0%
Test I rating (disease control) [2]: 89%
Test H rating (disease control) [3]: 97%
Test F rating (disease control) [4]: 100%
Test B rating (disease control) [5]: 0%
Test A rating (disease control) [6]: 99%
Test G rating (disease control) [7]: 0%
